The values below come from US5436229A, “Bisulfite adducts of arginine aldehydes” (Eli Lilly and Company, priority 1994, dated 1995).

Common to all, as to assay type: biochemical
Experiment [1] concerns human plasma. In words: Human plasma anticoagulation, thrombin time (TT). The protocol: (§1) Fibrinogen is prepared from in-date ACD human blood as the fraction I-2 according to previous procedures and specifications. Smith, Biochem. […] Coagulation reagents ACTIN, Thromboplastin, and Human plasma are from Baxter Healthcare Corp., Dade Division, Miami, Fla. Bovine thrombin from Parke-Davis (Detroit, Mich.) is used for coagulation assays in plasma. Coagulation assay procedures are as previously described. […] A CoAScreener coagulation instrument (American LABor, Inc.) is used for all coagulation assay measurements. […] The compounds of formula I are added to human or animal plasma over a wide range of concentrations to determine prolongation effects on the APTT, PT, and TT assays. Linear extrapolations are performed to estimate the concentrations required to double the clotting time for each assay.

The subject of experiment [2] is human plasma. In words: Human plasma anticoagulation, activated partial thromboplastin time (APTT). The protocol:
as §1

Experiment [3] addresses human thrombin (Homo sapiens, UniProt P00734). In words: Thrombin amidase inhibition (Kass), chromogenic substrate. The protocol:
The assay is carried out by mixing 50 μl buffer (0.03M Tris, 0.15M NaCl, pH 7.4) with 25 μl of human thrombin solution (purified human thrombin, Enzyme Research Laboratories, South Bend, Ind., at 8 NIH units/ml) and 25 μl of test compound in a solvent (50% aqueous methanol (v:v)). Then 150 μl of an aqueous solution of the chromogenic substate (at 0.25 mg/ml) are added and the rates of hydrolysis of the substrate are measured by monitoring the reactions at 405 nm for the release of p-nitroaniline. Standard curves are constructed by plotting free thrombin concentration against hydrolysis rate. […] The amount of free inhibitor in each assay is calculated by subtracting the number of moles of bound thrombin from the number of moles of added inhibitor (test compound).
The Kass value is the hypothetical equilibrium constant for the reaction between thrombin and the test compound (I) . [formula]
Kass is calculated for a range of concentrations of test compounds and the mean value reported in units of liter per mole.

Experiment [4] has as its system human plasma. In words: Human plasma anticoagulation, prothrombin time (PT). The method, then: as §1
The target in experiment [5] is T1, Human plasmin (Homo sapiens, UniProt P00747).
T1 construct: Human plasmin is purchased from Boehringer Mannheim; purchased Boehringer Mannheim, Indianapolis, Ind
In words: Serine protease inhibition (Kass), plasmin. The protocol:
(§2) By substantially following the procedures described above for human thrombin, and using other human blood coagulation system serine proteases and using fibrinolytic system serine proteases, with the appropriate chromogenic substrates, identified below, the selectivity of the compounds of the present invention with respect to the coagulation factor serine proteases and to the fibronolytic serine proteases are evaluated as well as their substantial lack of interference with human plasma clot fibrinolysis.
(§3) Human plasmin is purchased from Boehringer Mannheim, Indianapolis, Ind.; nt-PA is purchased as single chain activity reference from American Diagnostica, Greenwich, Conn.; modified-t-PA6 (mt-PA6) is prepared at Eli Lilly and Company by procedure known in the art (See, Burck, et al., J. Biol. Chem., 265, […] (1990). Plasmin chromogenic substrate H-D-Val-Leu-Lys-p-nitroanilide and tissue plasminogen activator (t-PA) substrate H-D-Ile-Pro-Arg-p-nitroanilide are purchased from Kabi Vitrum, Stockholm, Sweden.

In experiment [6] the target is T2, Bovine trypsin (Bos taurus, UniProt P00760).
T2 construct: Bovine trypsin is purchased from Worthington Biochemicals; purchased Worthington Biochemicals, Freehold, N.J
T2 sequence (P00760 24-246): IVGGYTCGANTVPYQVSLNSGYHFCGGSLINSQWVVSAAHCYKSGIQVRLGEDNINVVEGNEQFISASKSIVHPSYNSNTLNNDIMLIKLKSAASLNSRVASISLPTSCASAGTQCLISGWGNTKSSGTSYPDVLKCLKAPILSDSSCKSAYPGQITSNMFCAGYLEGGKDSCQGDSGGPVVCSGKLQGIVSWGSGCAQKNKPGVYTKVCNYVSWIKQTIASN
In words: Serine protease inhibition (Kass), trypsin. The protocol: as §2
(§4) Human factors X, Xa, IXa, XIa, and XIIa are purchased from Enzyme Research Laboratories, South Bend, Ind.; human urokinase from Leo Pharmaceuticals, Denmark; and recombinant activated Protein C (aPC) is prepared at Eli Lilly and Co. substantially according to U.S. Pat. No. 4,981,952 incorporated by reference herein in its entirety. Chromogenic substrates: N-Benzoyl-Ile-Glu-Gly-Arg-p-nitroanilide (for factor Xa); N-Cbz-D-Arg-Gly-Arg-p-nitroanilide (for factor IXa assay as the factor Xa substrate); Pyroglutamyl-Pro-Arg-p-nitroanilide (for Factor XIa and for aPC); H-D-Pro-Phe-Arg-p-nitroanilide (for factor XIIa); and Pyroglutamyl-Gly-Arg-p-nitroanilide (for urokinase); are purchased from KabiVitrum, Stockholm, Sweden, or from Midwest Biotech, Fishers, Ind. Bovine trypsin is purchased from Worthington Biochemicals, Freehold, N.J., and human plasma kallikrein from Kabi Vitrum, Stockholm, Sweden. Chromogenic substrate H-D-Pro-Phe-Arg-p-nitroanilide for plasma kallikrein is purchased from Kabi Vitrum, Stockholm, Sweden. N-Benzoyl-Phe-Val-Arg-p-nitroanilide, the substrate for human thrombin and for trypsin, is synthesized according to procedures described above for the compounds of the present invention, using known methods of peptide coupling from commercially available reactants, or purchaed from Midwest Biotech, Fishers, Ind.

Experiment [7] deals with T3, tissue plasminogen activator (t-PA) (Homo sapiens, UniProt P00750).
T3 construct: purchased American Diagnostica, Greenwich, Conn
In words: Serine protease inhibition (Kass), t-PA. The protocol:
as §2, §3

Experiment [8] concerns the target T4, factor Xa (Homo sapiens, UniProt P00742).
T4 construct: Human factors X, Xa, IXa, XIa, and XIIa are purchased from Enzyme Research Laboratories; purchased Enzyme Research Laboratories, South Bend, Ind
In words: Serine protease inhibition (Kass), factor Xa. The protocol:
as §2, §4

T3 sequence (P00750 36-562): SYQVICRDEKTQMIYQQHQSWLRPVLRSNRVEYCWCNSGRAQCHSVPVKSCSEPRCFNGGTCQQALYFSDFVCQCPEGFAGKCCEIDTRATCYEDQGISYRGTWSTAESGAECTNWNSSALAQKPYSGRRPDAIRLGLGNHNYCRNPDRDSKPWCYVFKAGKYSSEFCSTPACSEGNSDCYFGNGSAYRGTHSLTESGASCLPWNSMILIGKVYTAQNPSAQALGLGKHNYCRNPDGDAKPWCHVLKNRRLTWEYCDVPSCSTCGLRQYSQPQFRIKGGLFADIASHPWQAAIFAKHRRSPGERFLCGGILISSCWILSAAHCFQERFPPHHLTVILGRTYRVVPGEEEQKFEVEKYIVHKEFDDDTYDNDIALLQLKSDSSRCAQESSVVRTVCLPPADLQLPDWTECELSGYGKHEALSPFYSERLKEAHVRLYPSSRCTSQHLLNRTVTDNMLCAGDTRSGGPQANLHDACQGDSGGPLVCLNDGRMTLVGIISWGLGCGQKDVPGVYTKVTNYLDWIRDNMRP
T1 sequence (P00747 581-810 limits assumed): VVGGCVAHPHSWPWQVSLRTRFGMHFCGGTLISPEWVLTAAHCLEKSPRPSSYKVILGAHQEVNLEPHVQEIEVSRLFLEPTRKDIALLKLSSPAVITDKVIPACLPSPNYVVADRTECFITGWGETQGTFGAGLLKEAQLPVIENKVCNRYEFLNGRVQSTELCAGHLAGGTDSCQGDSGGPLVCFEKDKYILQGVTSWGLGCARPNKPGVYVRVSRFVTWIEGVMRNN
T1 sequence (P00747 97-580 partner limits assumed): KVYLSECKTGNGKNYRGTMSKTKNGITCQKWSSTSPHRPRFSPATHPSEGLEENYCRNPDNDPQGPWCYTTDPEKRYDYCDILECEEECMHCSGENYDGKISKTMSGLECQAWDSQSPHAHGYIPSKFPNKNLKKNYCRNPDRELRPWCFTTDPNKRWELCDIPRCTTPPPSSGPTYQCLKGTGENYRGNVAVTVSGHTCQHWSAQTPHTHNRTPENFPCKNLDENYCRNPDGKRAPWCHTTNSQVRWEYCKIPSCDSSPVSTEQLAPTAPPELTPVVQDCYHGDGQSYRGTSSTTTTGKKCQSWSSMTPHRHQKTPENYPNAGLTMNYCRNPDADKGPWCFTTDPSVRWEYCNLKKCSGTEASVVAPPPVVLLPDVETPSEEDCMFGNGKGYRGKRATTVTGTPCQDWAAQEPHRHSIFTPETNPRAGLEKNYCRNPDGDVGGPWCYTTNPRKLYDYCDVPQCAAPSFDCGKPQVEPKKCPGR
T4 sequence (P00742 235-488 limits assumed): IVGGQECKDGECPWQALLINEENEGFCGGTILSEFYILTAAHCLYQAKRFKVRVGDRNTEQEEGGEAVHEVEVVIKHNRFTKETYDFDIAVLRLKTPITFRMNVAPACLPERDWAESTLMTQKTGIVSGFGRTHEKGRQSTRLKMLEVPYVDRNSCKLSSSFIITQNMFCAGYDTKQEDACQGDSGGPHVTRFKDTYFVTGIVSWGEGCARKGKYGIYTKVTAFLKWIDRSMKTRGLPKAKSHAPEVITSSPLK
T4 sequence (P00742 41-179 partner limits assumed): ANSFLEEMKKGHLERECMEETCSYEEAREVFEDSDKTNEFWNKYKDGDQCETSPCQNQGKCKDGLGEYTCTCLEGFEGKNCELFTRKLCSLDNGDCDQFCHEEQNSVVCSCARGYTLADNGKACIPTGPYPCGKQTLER

With `CCS(=O)(=O)N[C@H](Cc1ccccc1)C(=O)N1CCC[C@@]1(C)C(=O)N[C@H](C=O)CCCNC(=N)N.Cl` [Example 28, N-ethylsulfonyl-D-Phenylalanyl(α-methyl)-L-prolinyl-L-arginine aldehyde hydrochloride], in experiment [1], the “2 × Clotting time TT” value is 100 ng/mL. The “2 × Clotting time APTT” value in experiment [2] is 1,600 ng/mL. Also, the “Kass Human Thrombin” value in experiment [3] was 24 L/mol × 10^6. Besides, the “2 × Clotting time PT” value in experiment [4] is reported as 2,400 ng/mL. The “Kass Plasmin” value in experiment [5] is on record as 0.31 L/mol × 10^6. Also, in experiment [6], the “Kass Trypsin” value is given as 20 L/mol × 10^6. Besides, in experiment [7], the “Kass t-PA” value is on record as 0.051 L/mol × 10^6. In experiment [8], the “Kass Xa” value came out at 0.11 L/mol × 10^6.

In the case of `CCOC(=O)N[C@@H](Cc1ccccc1)C(=O)N1CCC[C@@]1(C)C(=O)N[C@H](C=O)CCCNC(=N)N.Cl` [Example 29, N-ethoxycarbonyl-phenylalanyl(αmethyl)-L-prolinyl-L-arginine aldehyde hydrochloride], the “2 × Clotting time TT” value in experiment [1] was determined as 190 ng/mL. The “2 × Clotting time APTT” value in experiment [2] is 5,400 ng/mL. For the same molecule, the “Kass Human Thrombin” value in experiment [3] was 5.0 L/mol × 10^6. Besides, the “2 × Clotting time PT” value in experiment [4] is 6,100 ng/mL. In experiment [5], the “Kass Plasmin” value is on record as 0.020 L/mol × 10^6. Further, the “Kass Trypsin” value in experiment [6] is reported as 1.7 L/mol × 10^6. Moreover, the “Kass t-PA” value in experiment [7] was 0.00072 L/mol × 10^6. The “Kass Xa” value in experiment [8] worked out at 0.025 L/mol × 10^6.

In the case of `Cl.Cl.Cn1c(C(=O)N[C@](C)(Cc2ccccc2)C(=O)N2CCC[C@H]2C(=O)N[C@H](C=O)CCCNC(=N)N)cc2ccccc21` [Example 30, N-(1-methylindolyl-2-carbonyl)-D-phenylalanyl(α-methyl)-L-prolinyl-L -arginine aldehyde dihydrochloride], the “2 × Clotting time TT” value in experiment [1] was 220 ng/mL. Moreover, the “2 × Clotting time APTT” value in experiment [2] is on record as 2,800 ng/mL. Further, the “Kass Human Thrombin” value in experiment [3] came to 25 L/mol × 10^6. Also, the “2 × Clotting time PT” value in experiment [4] is 4,200 ng/mL. The “Kass Plasmin” value in experiment [5] amounted to 0.0083 L/mol × 10^6. Besides, the “Kass Trypsin” value in experiment [6] turned out to be 1.3 L/mol × 10^6. Moreover, the “Kass t-PA” value in experiment [7] was 0.0022 L/mol × 10^6. In addition, in experiment [8], the “Kass Xa” value is listed as 0.013 L/mol × 10^6.

`CCS(=O)(=O)NC1(C(=O)N2CCC[C@H]2C(=O)N[C@H](C=O)CCCNC(=N)N)CCCCC1.Cl` [Example 31, 1-(ethylsulfonylamino)cyclohexoyl-L-prolinyl-L-arginine aldehyde hydrochloride]: in experiment [1], the “2 × Clotting time TT” value is given as 300 ng/mL. Moreover, the “2 × Clotting time APTT” value in experiment [2] is on record as 12,000 ng/mL. For the same molecule, the “Kass Human Thrombin” value in experiment [3] was found to be 3.2 L/mol × 10^6. The “2 × Clotting time PT” value in experiment [4] is recorded as 11,000 ng/mL. Besides, in experiment [5], the “Kass Plasmin” value is on record as 0.010 L/mol × 10^6. In addition, the “Kass Trypsin” value in experiment [6] is 0.42 L/mol × 10^6. Also, the “Kass t-PA” value in experiment [7] amounted to 0.00034 L/mol × 10^6. Also, in experiment [8], the “Kass Xa” value came to 0.036 L/mol × 10^6.

`Cl.Cn1c(C(=O)NC2(C(=O)N3CCC[C@H]3C(=O)N[C@H](C=O)CCCNC(=N)N)CCCCC2)cc2ccccc21` [Example 32, 1-(1-methylindolyl-2-carbonylamino)cyclohexoyl-L-prolinyl-L-arginine aldehyde hydrochloride]: in experiment [1], the “2 × Clotting time TT” value was 1,000 ng/mL. Also, the “2 × Clotting time APTT” value in experiment [2] is given as 11,000 ng/mL. Besides, in experiment [3], the “Kass Human Thrombin” value amounted to 5.7 L/mol × 10^6. Moreover, the “2 × Clotting time PT” value in experiment [4] is given as 9,200 ng/mL. Further, the “Kass Plasmin” value in experiment [5] amounted to 0.0071 L/mol × 10^6. In addition, the “Kass Trypsin” value in experiment [6] is 0.45 L/mol × 10^6. The “Kass t-PA” value in experiment [7] was 0.0011 L/mol × 10^6. In experiment [8], the “Kass Xa” value was determined as 0.024 L/mol × 10^6.

On to `CCS(=O)(=O)N[C@@H](Cc1ccccc1)C(=O)N1CCC[C@@]1(C)C(=O)N[C@H](C=O)CCCNC(=N)N.Cl` [Example 33, N-ethylsulfonylphenylalanyl(αmethyl)-L-prolinyl-L-arginine aldehyde hydrochloride], for which, in experiment [1], the “2 × Clotting time TT” value is recorded as 300 ng/mL. In experiment [2], the “2 × Clotting time APTT” value is 5,400 ng/mL. Moreover, the “Kass Human Thrombin” value in experiment [3] was 0.6 L/mol × 10^6. Besides, in experiment [4], the “2 × Clotting time PT” value is reported as 7,300 ng/mL. Further, the “Kass Plasmin” value in experiment [5] is 0.056 L/mol × 10^6. Besides, the “Kass Trypsin” value in experiment [6] is 1.7 L/mol × 10^6. In addition, the “Kass t-PA” value in experiment [7] came to 0.007 L/mol × 10^6. Also, the “Kass Xa” value in experiment [8] came to 0.027 L/mol × 10^6.

In the case of `Cl.Cn1c(C(=O)NC(C)(Cc2ccccc2)C(=O)N2CCC[C@H]2C(=O)N[C@H](C=O)CCCNC(=N)N)cc2ccccc21` (stereo partly drawn) [Example 34, N-(1-methylindolyl-2carbonyl)phenylalanyl(αmethyl)-L-prolinyl-L-argi nine aldehyde hydrochloride], in experiment [1], the “2 × Clotting time TT” value was 1,800 ng/mL. In addition, the “2 × Clotting time APTT” value in experiment [2] is given as 21,000 ng/mL. In addition, the “Kass Human Thrombin” value in experiment [3] came out at 2.8 L/mol × 10^6. Besides, the “2 × Clotting time PT” value in experiment [4] was 37,000 ng/mL. Moreover, in experiment [5], the “Kass Plasmin” value was found to be 0.001 L/mol × 10^6. Also, in experiment [6], the “Kass Trypsin” value stood at 0.18 L/mol × 10^6. Also, the “Kass t-PA” value in experiment [7] is listed as 0.009 L/mol × 10^6. The “Kass Xa” value in experiment [8] came out at 0.002 L/mol × 10^6.

As to `CCOC(=O)N[C@](CC)(Cc1ccccc1)C(=O)N1CCC[C@H]1C(=O)N[C@H](C=O)CCCNC(=N)N.Cl` [Example 35, N-ethoxycarbonyl-D-phenylalanyl(αethyl)-L-prolinyl-L-arginine aldehyde hydrochloride], the “2 × Clotting time TT” value in experiment [1] is 93 ng/mL. Further, the “2 × Clotting time APTT” value in experiment [2] is given as 3,200 ng/mL. Besides, the “Kass Human Thrombin” value in experiment [3] came to 57 L/mol × 10^6. Besides, the “2 × Clotting time PT” value in experiment [4] was 3,300 ng/mL. For the same molecule, in experiment [5], the “Kass Plasmin” value worked out at 0.12 L/mol × 10^6. In addition, in experiment [6], the “Kass Trypsin” value is 4.9 L/mol × 10^6. Further, the “Kass t-PA” value in experiment [7] turned out to be 0.002 L/mol × 10^6. Also, the “Kass Xa” value in experiment [8] was 0.036 L/mol × 10^6.

As for `CCOC(=O)NC(CC)(Cc1ccccc1)C(=O)N1CCC[C@H]1C(=O)N[C@H](C=O)CCCNC(=N)N.Cl` (stereo partly drawn) [Example 36, N-ethoxycarbonylphenylalanyl(αethyl)-L-prolinyl-L-arginine aldehyde hydrochloride], the “2 × Clotting time TT” value in experiment [1] amounted to 310 ng/mL. Besides, the “2 × Clotting time APTT” value in experiment [2] is recorded as 5,000 ng/mL. The “Kass Human Thrombin” value in experiment [3] is reported as 6.5 L/mol × 10^6. In addition, the “2 × Clotting time PT” value in experiment [4] is 7,100 ng/mL. In addition, the “Kass Plasmin” value in experiment [5] is on record as 0.058 L/mol × 10^6. Besides, in experiment [6], the “Kass Trypsin” value is listed as 4.7 L/mol × 10^6. Besides, in experiment [7], the “Kass t-PA” value is listed as 0.001 L/mol × 10^6. Moreover, the “Kass Xa” value in experiment [8] is given as 0.078 L/mol × 10^6.
